Reference: patent US11992010B2, “Use of 4-(phenylethynyl) benzoic acid” (China Jiliang University, priority 2022, dated 2024)

Tests used:
tomato seeds = assay: Seed germination experiment on tomato; assay type: in vivo, Solanum lycopersicum CV. Zhefen 202; details: 50 μM
Procedure: (§1) The seeds of Arabidopsis wild type (Arabidopsis thaliana L. Columbia, Col-0 ecotype) were provided by the lab of plant quality & safety biology in China Jiliang university. The commercial tomato seeds (Solanum lycopersicum CV. Zhefen 202) were provided by Zhejiang Academy of Agricultural Sciences.
(§2) The 4-(Phenylethynyl) benzoic acid solutions were prepared as follows: 22.9 mg 4-(Phenylethynyl) benzoic acid was weighted and dissolved in 1 mL DMSO to make the 100 mM 4-(Phenylethynyl) benzoic acid mother solution. The working solutions applied were prepared by diluting the 4-(phenylethynyl) benzoic acid mother solution with water. For example, the 4-(Phenylethynyl) benzoic acid treatment solutions at the concentrations of 1 μM, 10 μM, and 50 μM were prepared by diluting 1 μL of the 100 mM 4-(phenylethynyl) benzoic acid mother solution to 100 mL, 10 mL, or 2 mL with water. DMSO was supplemented to a final concentration of 0.05% (V:V).
(§3) 0.05% DMSO water solution then used as a control solution.
For tomato, 80 seeds were sowed on two layers of filter papers in a 6-cm-diameter Petri dish with germination liquids. 4-(Phenylethynyl) benzoic acid treatment solution at the concentration of 50 μM and 0.05% DMSO water solution (Control) were used as the germination liquids. There were three replicates for each treatment. After germination for 24 h, 36 h, 48 h, 60 h, 72 h, 84 h in a growth chamber (25° C.), the germination rate (the proportion of the total number of the seeds germinated corresponding to each time point after the start of the germination experiment to the total number of seeds to be tested) was calculated, respectively. The germination rate at 48 h was adopted as the germination potential (the proportion of the total number of the seeds germinated corresponding to 48 h after the start of the germination experiment to the total number of seeds to be tested).

Arabidopsis seeds = assay: Seed germination experiment on Arabidopsis; assay type: in vivo, Arabidopsis thaliana L. Columbia, Col-0 ecotype; details: for Germination potential/% (48 h): control 45.31 ± 6.63; for Ultimate germination rate/%: control 88.32 ± 1.15
Procedure: as §1, §2, §3
Arabidopsis seeds were soaked in 4-(Phenylethynyl) benzoic acid treatment solutions at the concentrations of 1 μM, 10 μM, and 50 μM for 3 days under dark at 4° C., respectively. Seeds soaked in the 0.05% DMSO water solution were used as control. On the fourth day, Seeds were transformed to light at 25° C. in 2-cm-diameter Petri dishes with two layers of filter papers. Different concentrations of 4-(Phenylethynyl) benzoic acid treatment solutions were added as germination liquids. 0.05% DMSO water solution was used as control. 30-50 seeds were placed on the moist filter paper in a Petri dish. There were three replicates for each treatment. After germination for 30 h, 42 h, 48 h, and 66 h in a growth chamber (25° C.), the germination rate (the proportion of the total number of the seeds germinated corresponding to each time point after the start of the germination experiment to the total number of seeds to be tested) was calculated, respectively. The germination rate at 48 h was adopted as the germination potential (the proportion of the total number of the seeds germinated corresponding to 48 h after the start of the germination experiment to the total number of seeds to be tested).

rice radicle = assay: Rice radicle elongation; assay type: in vivo, Oryza sativa L. Datian Nip
Procedure: Rice cultivar (Oryza sativa L. Datian Nip) was provided by Zhejiang Academy of Agricultural Sciences.
Every 1 μL 4-(Phenylethynyl) benzoic acid mother solution in Example 1 was diluted with water to 2 mL or 500 μL to prepare 50 μM or 200 μM 4-(Phenylethynyl) benzoic acid treatment solutions. 0.05% DMSO water solution was used as the control solution for 50 μM 4-(Phenylethynyl) benzoic acid treatment solution and 0.2% DMSO water solution was used as the control solution for 200 μM 4-(Phenylethynyl) benzoic acid treatment solution respectively.
A volume of 10 ml 4-(Phenylethynyl) benzoic acid treatment solutions at various concentrations were added to 9-cm-diameter Petri dishes with two layers of filter papers. 100 seeds were placed on the moist filter paper in a Petri dish. 0.05% DMSO water solution was used as control for 50 μM 4-(Phenylethynyl) benzoic acid treatment solution. 0.2% DMSO water solution was used as control for 200 μM 4-(Phenylethynyl) benzoic acid treatment solution. There were three replicates for each treatment. Seeds were germinated under light at 28° C. The seeds that germinated between the second and the third day after imbibition were chosen and their radicle length were measured on the fifth day.

stomata of tomato leaves = assay: Stomata closure in abaxial epidermal strips of tomato; assay type: cell-based, Solanum lycopersicum CV. Zhefen 202; details: 50 μM, 3 hours, compared to the control
Procedure: The commercial tomato seeds (Solanum lycopersicum CV. Zhefen 202) were provided by Zhejiang Academy of Agricultural Sciences.
The concentration of 4-(Phenylethynyl) benzoic acid used in this example was 50 μM. Every 1 μL of the 100 mM 4-(Phenylethynyl) benzoic acid mother solution in Example 1 was diluted to 2 mL with MES-KCl buffer (10 mM MES, 50 mM KCl, pH 6.15). 0.5% Tween-80 (V:V) was added to increase the solubility and stability of 4-(Phenylethynyl) benzoic acid. The solution was mixed evenly by stirring efficiently and it was ensured that no 4-(phenylethynyl) benzoic acid was precipitated, and finally 50 μM 4-(phenylethynyl) benzoic acid was prepared.
The control solution was the MES-KCl buffer containing 0.05% DMSO and 0.5% Tween-80.
Abaxial epidermal strips of tomato were firstly peeled from washed leaves, then immersed in MES-KCl buffer (10 mM MES, 50 mM KCl, pH 6.15) under light at 28° C. to induce stomatal opening. After 2 hours, abaxial epidermal strips of tomato were treated with the control solution (MES-KCl buffer with 0.05% DMSO and 0.5% Tween-80) and 50 μM 4-(Phenylethynyl) benzoic acid treatment solution (MES-KCl buffer with 50 μM 4-(Phenylethynyl) benzoic acid, 0.05% DMSO and 0.5% Tween-80) for 3 hours, respectively. […] Widths and lengths of stomata were measured and the aperture ratios (width:length) were calculated. […]

## O=C(O)c1ccc(C#Cc2ccccc2)cc1 [4-(Phenylethynyl) benzoic acid]
Tomato seeds; compared to the control
  tomato seeds germination (in words): significantly inhibited the germination process and reduced the germination rate
Tomato seeds; Tomato, 48 h, control 20.83 ± 1.90
  Germination potential/% (48 h): 0.00 ± 0.00 b %
Tomato seeds; Tomato, control 88.75 ± 6.25
  Ultimate germination rate/%: 10.41 ± 2.88 b %
Arabidopsis seeds; 10 μM and 50 μM, 50 μM exhibited a stronger effect
  germination of Arabidopsis seeds (in words): significantly slowed down the germination
Arabidopsis seeds; Arabidopsis, 1 μM
  Germination potential/% (48 h): 37.50 ± 7.50 a %
  Ultimate germination rate/%: 92.33 ± 0.29 a %
Arabidopsis seeds; Arabidopsis, 10 μM
  decrease in germination potential: > 20%
  Germination potential/% (48 h): 14.53 ± 6.40 b %
  Ultimate germination rate/%: 85.24 ± 7.41 a %
Arabidopsis seeds; Arabidopsis, 50 μM
  germination rate reduction ultimately: > 80%
  Ultimate germination rate/%: 2.30 ± 3.98 b %
Rice radicle; 50 μM and 200 μM, relative to their controls, 200 μM significantly better than 50 μM
  rice radicle elongation (in words): significantly inhibited rice radicle elongation
Rice radicle; Oryza sativa, rice, 50 μM, control 0.05% DMSO, read-out: radicle length, % of control treatment
  activity at 50 µM: 48.2%
Rice radicle; Oryza sativa, rice, 200 μM, control 0.2% DMSO, read-out: radicle length, % of control treatment
  activity at 200 µM: 20.3%
Stomata of tomato leaves
  aperture ratio (width:length) (in words): significantly reduced
  stomata aperture (in words): significantly reduced
